# Measurements as given in ChEMBL document CHEMBL5316298, “Discovery of Amphiphilic Xanthohumol Derivatives as Membrane-Targeting Antimicrobials against Methicillin-Resistant Staphylococcus aureus” (J Med Chem, 2023).
# Legend:
# Staphylococcus aureus [1] = test: Antibacterial activity against Staphylococcus aureus ATCC 29213 incubated for 16 to 18 hrs by CLSI-based microbroth dilution method; assay type: functional; settings: time 16-18 hrs
# Staphylococcus aureus [2] = test: Antibacterial activity against methicillin-resistant Staphylococcus aureus clinical isolate 1 incubated for 16 to 18 hrs by CLSI-based microbroth dilution method; assay type: functional; settings: time 16-18 hrs
# Staphylococcus aureus [3] = test: Antibacterial activity against methicillin-resistant Staphylococcus aureus clinical isolate 2 incubated for 16 to 18 hrs by CLSI-based microbroth dilution method; assay type: functional; settings: time 16-18 hrs
# Staphylococcus aureus [4] = test: Antibacterial activity against methicillin-resistant Staphylococcus aureus clinical isolate 3 incubated for 16 to 18 hrs by CLSI-based microbroth dilution method; assay type: functional; settings: time 16-18 hrs
# Staphylococcus aureus [5] = test: Antibacterial activity against methicillin-resistant Staphylococcus aureus clinical isolate 4 incubated for 16 to 18 hrs by CLSI-based microbroth dilution method; assay type: functional; settings: time 16-18 hrs
# Staphylococcus aureus [6] = test: Antibacterial activity against methicillin-resistant Staphylococcus aureus clinical isolate 5 incubated for 16 to 18 hrs by CLSI-based microbroth dilution method; assay type: functional; settings: time 16-18 hrs
# Staphylococcus aureus [7] = test: Antibacterial activity against methicillin-resistant Staphylococcus aureus clinical isolate 6 incubated for 16 to 18 hrs by CLSI-based microbroth dilution method; assay type: functional; settings: time 16-18 hrs
# Staphylococcus aureus [8] = test: Antibacterial activity against methicillin-resistant Staphylococcus aureus clinical isolate 7 incubated for 16 to 18 hrs by CLSI-based microbroth dilution method; assay type: functional; settings: time 16-18 hrs
# Staphylococcus aureus [9] = test: Antibacterial activity against methicillin-resistant Staphylococcus aureus clinical isolate 8 incubated for 16 to 18 hrs by CLSI-based microbroth dilution method; assay type: functional; settings: time 16-18 hrs
# Staphylococcus aureus [10] = test: Antibacterial activity against methicillin-resistant Staphylococcus aureus clinical isolate 9 incubated for 16 to 18 hrs by CLSI-based microbroth dilution method; assay type: functional; settings: time 16-18 hrs
# Staphylococcus aureus [11] = test: Antibacterial activity against methicillin-resistant Staphylococcus aureus clinical isolate 10 incubated for 16 to 18 hrs by CLSI-based microbroth dilution method; assay type: functional; settings: time 16-18 hrs
# [12] = Hemolytic activity in sheep erythrocytes incubated for 1 hr by absorbance based analysis; assay type: toxicity, cell-based, Ovis aries, Erythrocyte
SMILES,MIC (Staphylococcus aureus [1]) [µg/mL],MIC (Staphylococcus aureus [2]) [µg/mL],MIC (Staphylococcus aureus [3]) [µg/mL],MIC (Staphylococcus aureus [4]) [µg/mL],MIC (Staphylococcus aureus [5]) [µg/mL],MIC (Staphylococcus aureus [6]) [µg/mL],MIC (Staphylococcus aureus [7]) [µg/mL],MIC (Staphylococcus aureus [8]) [µg/mL],MIC (Staphylococcus aureus [9]) [µg/mL],MIC (Staphylococcus aureus [10]) [µg/mL],MIC (Staphylococcus aureus [11]) [µg/mL],HC50 at 1 h [12] [µg/mL]
CCCCNC(=O)C[N+](C)(C)CCCCOc1ccc(/C=C/C(=O)c2c(OC)cc3c(c2O)C=CC(C)(C)O3)cc1.[Br-],4,2,2,2,2,2,2,2,4,2,4,220
COc1cc2c(c(O)c1C(=O)/C=C/c1ccc(OCCCC[N+](C)(C)CC(=O)N3CCOCC3)cc1)C=CC(C)(C)O2.[Br-],8,8,8,4,8,4,4,4,4,8,16,> 1280
COc1cc2c(c(O)c1C(=O)/C=C/c1ccc(OCCC[N+](C)(C)CC(=O)N3CCSCC3)cc1)C=CC(C)(C)O2.[Br-],2,4,2,2,4,2,2,2,2,2,4,416
CCCN(CCC)C(=O)C[N+](C)(C)CCCCCOc1ccc(/C=C/C(=O)c2c(OC)cc3c(c2O)C=CC(C)(C)O3)cc1.[Br-],2,4,4,2,2,2,1,2,2,1,2,436
COc1cc2c(c(O)c1C(=O)/C=C/c1ccc(OCCCC[N+](C)(C)CC(=O)N(CC(C)C)CC(C)C)cc1)C=CC(C)(C)O2.[Br-],4,2,2,1,4,1,1,1,2,2,4,333
COc1cc2c(c(O)c1C(=O)/C=C/c1ccc(O)cc1)C=CC(C)(C)O2 [XANTHOHUMOL C],4,4,4,4,4,4,8,4,4,8,4,222
CCCCCNC(=O)C[N+](C)(C)CCCCCOc1ccc(/C=C/C(=O)c2c(OC)cc3c(c2O)C=CC(C)(C)O3)cc1.[Br-],2,2,2,2,2,2,2,4,2,8,4,301
CCCCN(CCCC)C(=O)C[N+](C)(C)CCCOc1ccc(/C=C/C(=O)c2c(OC)cc3c(c2O)C=CC(C)(C)O3)cc1.[Br-],2,2,2,2,2,1,1,1,1,2,2,434
CCCCCCNC(=O)C[N+](C)(C)CCCCOc1ccc(/C=C/C(=O)c2c(OC)cc3c(c2O)C=CC(C)(C)O3)cc1.[Br-],2,2,2,2,8,2,1,4,4,4,2,938
COc1cc2c(c(O)c1C(=O)/C=C/c1ccc(OCCCCC[N+](C)(C)CC(=O)N(C(C)C)C(C)C)cc1)C=CC(C)(C)O2.[Br-],2,2,2,2,1,2,1,2,4,2,2,229
COc1cc2c(c(O)c1C(=O)/C=C/c1ccc(OCCCC[N+](C)(C)CC(=O)N3CCSCC3)cc1)C=CC(C)(C)O2.[Br-],4,4,2,2,4,4,2,4,4,2,2,705
CCCNC(=O)C[N+](C)(C)CCCOc1ccc(/C=C/C(=O)c2c(OC)cc3c(c2O)C=CC(C)(C)O3)cc1.[Br-],4,4,2,2,4,2,2,2,2,2,4,210
CCCCN(CCCC)C(=O)C[N+](C)(C)CCCCOc1ccc(/C=C/C(=O)c2c(OC)cc3c(c2O)C=CC(C)(C)O3)cc1.[Br-],2,1,2,1,2,2,1,4,4,1,2,466
CCCCNC(=O)C[N+](C)(C)CCCOc1ccc(/C=C/C(=O)c2c(OC)cc3c(c2O)C=CC(C)(C)O3)cc1.[Br-],2,2,2,1,2,2,2,2,2,1,4,58.3
COc1cc2c(c(O)c1C(=O)/C=C/c1ccc(OCCCC[N+](C)(C)CC(=O)N(C(C)C)C(C)C)cc1)C=CC(C)(C)O2.[Br-],2,8,2,2,2,2,1,2,2,2,2,657
CCCCN(CCCC)C(=O)C[N+](C)(C)CCCCCOc1ccc(/C=C/C(=O)c2c(OC)cc3c(c2O)C=CC(C)(C)O3)cc1.[Br-],2,2,2,4,8,2,1,2,4,8,2,409
COc1cc2c(c(O)c1C(=O)/C=C/c1ccc(OCCCCC[N+](C)(C)CC(=O)N3CCSCC3)cc1)C=CC(C)(C)O2.[Br-],4,8,4,4,4,4,2,4,4,1,1,210
COc1cc2c(c(O)c1C(=O)/C=C/c1ccc(OCCC[N+](C)(C)CC(=O)N(CC(C)C)CC(C)C)cc1)C=CC(C)(C)O2.[Br-],2,2,4,1,2,1,1,1,2,2,4,447
COc1cc2c(c(O)c1C(=O)/C=C/c1ccc(OCCC[N+](C)(C)CC(=O)N(C(C)C)C(C)C)cc1)C=CC(C)(C)O2.[Br-],4,2,2,1,2,1,1,2,2,2,4,158
CCCN(CCC)C(=O)C[N+](C)(C)CCCOc1ccc(/C=C/C(=O)c2c(OC)cc3c(c2O)C=CC(C)(C)O3)cc1.[Br-],2,2,2,1,2,2,2,1,2,1,2,118
CCCNC(=O)C[N+](C)(C)CCCCOc1ccc(/C=C/C(=O)c2c(OC)cc3c(c2O)C=CC(C)(C)O3)cc1.[Br-],4,2,2,2,4,4,2,2,2,2,4,410
CCCCNC(=O)C[N+](C)(C)CCCCCOc1ccc(/C=C/C(=O)c2c(OC)cc3c(c2O)C=CC(C)(C)O3)cc1.[Br-],2,2,2,2,2,1,1,2,2,4,2,826
